The source of these data is patent publication US11453703B2, “Heterotandem bicyclic peptide complexes” (BicycleTX Limited, priority 2018, dated 2022).

For one data set, the target named is human EphA2 protein (Homo sapiens, UniProt P29317). The experiment in a line: EphA2 Biacore (SPR) binding assay. Particulars: biotinylated human EphA2, 25° C. The procedure:
Biacore experiments were performed to determine ka (M^−1s^−1), kd (s^−1), KD (nM) values of heterotandem peptides binding to human EphA2 protein.
EphA2 were biotinylated with EZ-Link™ Sulfo-NHS-LC-Biotin for 1 hour in 4 mM sodium acetate, 100 mM NaCl, pH 5.4 with a 3× molar excess of biotin over protein. The degree of labelling was determined using a Fluorescence Biotin Quantification Kit (Thermo) after dialysis of the reaction mixture into PBS. For analysis of peptide binding, a Biacore T200 instrument was used with a XanTec CMD500D chip. Streptavidin was immobilized on the chip using standard amine-coupling chemistry at 25° C. with HBS-N (10 mM HEPES, 0.15 M NaCl, pH 7.4) as the running buffer. Briefly, the carboxymethyl dextran surface was activated with a 7 min injection of a 1:1 ratio of 0.4 M 1-ethyl-3-(3-dimethylaminopropyl) carbodiimide hydrochloride (EDC)/0.1 M N-hydroxy succinimide (NHS) at a flow rate of 10 it/min. For capture of streptavidin, the protein was diluted to 0.2 mg/ml in 10 mM sodium acetate (pH 4.5) and captured by injecting 120 μl onto the activated chip surface. Residual activated groups were blocked with a 7 min injection of 1 M ethanolamine (pH 8.5):HBS-N (1:1). Buffer was changed to PBS/0.05% Tween 20 and biotinylated EphA2 was captured to a level of 500-1500 RU using a dilution of protein to 0.2 μM in buffer. A dilution series of the peptides was prepared in this buffer with a final DMSO concentration of 0.5% with a top peptide concentration was 50 or 100 nM and 6 further 2-fold dilutions. The SPR analysis was run at 25° C. at a flow rate of 90 μl/min with 60 seconds association and 900-1200 seconds dissociation. Data were corrected for DMSO excluded volume effects. All data were double-referenced for blank injections and reference surface using standard processing procedures and data processing and kinetic fitting were performed using Scrubber software, version 2.0c (BioLogic Software). Data were fitted using simple 1:1 binding model allowing for mass transport effects where appropriate.
A general note: Surface plasmon resonance follows binding to a sensor surface in real time, without labels.

Data set [1] has as its target T1, CD137 (Homo sapiens, UniProt Q07011). The experiment in a line: CD137 Biacore (SPR) binding assay. Also on record: purchased R&D systems. To be noted: biotinylated human CD137, 25° C. The procedure:
Biacore experiments were performed to determine ka (M^−1s^−1), kd (s^−1), KD (nM) values of heterotandem peptides binding to human CD137 protein. […] The protein was desalted to remove uncoupled biotin using spin columns into PBS.
For analysis of peptide binding, a Biacore T200 or a Biacore 3000 instrument was used with a XanTec CMD500D chip. Streptavidin was immobilized on the chip using standard amine-coupling chemistry at 25° C. with HBS-N (10 mM HEPES, 0.15 M NaCl, pH 7.4) as the running buffer. Briefly, the carboxymethyl dextran surface was activated with a 7 min injection of a 1:1 ratio of 0.4 M 1-ethyl-3-(3-dimethylaminopropyl) carbodiimide hydrochloride (EDC)/0.1 M N-hydroxy succinimide (NHS) at a flow rate of 10 μl/min. For capture of streptavidin, the protein was diluted to 0.2 mg/ml in 10 mM sodium acetate (pH 4.5) and captured by injecting 120 μl of onto the activated chip surface. Residual activated groups were blocked with a 7 min injection of 1 M ethanolamine (pH 8.5) and biotinylated CD137 captured to a level of 270-1500 RU. Buffer was changed to PBS/0.05% Tween 20 and a dilution series of the peptides was prepared in this buffer with a final DMSO concentration of 0.5%. The top peptide concentration was 500 nM with 6 further 2-fold or 3-fold dilutions. The SPR analysis was run at 25° C. at a flow rate of 90 μl/min with 60 seconds association and 900 seconds dissociation. After each cycle a regeneration step (10 μl of 10 mM glycine pH 2) was employed. Data were corrected for DMSO excluded volume effects as needed. All data were double-referenced for blank injections and reference surface using standard processing procedures and data processing and kinetic fitting were performed using Scrubber software, version 2.0c (BioLogic Software). Data were fitted using simple 1:1 binding model allowing for mass transport effects where appropriate.

In data set [2] the target is T1, CD137. The experiment in a line: CD137 reporter assay, co-culture with EphA2 tumour cells. In kind it is cell-based. Also on record: host or cells: Jurkat reporter cells. To be noted: tumour target EphA2, co-culture with SC-OV-3, 6 h. The gist of the method: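 Jurkat CD137 reporter cells co-cultured with tumour cells and serially diluted test articles in RPMI-1640 + 1% FBS, 6 h at 37 °C, 5% CO2. Luminescence read after Bio-Glo; fold change over cells-only background fitted log(agonist) vs response for EC50 (nM) and maximal fold induction.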
(In general: In a reporter assay the amount or activity of a reporter protein is the signal.)

T1 sequence (Q07011 24-255): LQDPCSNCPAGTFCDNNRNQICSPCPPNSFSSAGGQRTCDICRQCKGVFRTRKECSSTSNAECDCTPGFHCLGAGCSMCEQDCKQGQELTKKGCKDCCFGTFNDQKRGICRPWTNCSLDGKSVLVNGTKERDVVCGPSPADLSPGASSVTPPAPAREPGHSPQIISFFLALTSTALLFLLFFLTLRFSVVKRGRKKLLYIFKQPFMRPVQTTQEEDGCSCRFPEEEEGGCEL
human EphA2 protein, sequence (P29317 24-976): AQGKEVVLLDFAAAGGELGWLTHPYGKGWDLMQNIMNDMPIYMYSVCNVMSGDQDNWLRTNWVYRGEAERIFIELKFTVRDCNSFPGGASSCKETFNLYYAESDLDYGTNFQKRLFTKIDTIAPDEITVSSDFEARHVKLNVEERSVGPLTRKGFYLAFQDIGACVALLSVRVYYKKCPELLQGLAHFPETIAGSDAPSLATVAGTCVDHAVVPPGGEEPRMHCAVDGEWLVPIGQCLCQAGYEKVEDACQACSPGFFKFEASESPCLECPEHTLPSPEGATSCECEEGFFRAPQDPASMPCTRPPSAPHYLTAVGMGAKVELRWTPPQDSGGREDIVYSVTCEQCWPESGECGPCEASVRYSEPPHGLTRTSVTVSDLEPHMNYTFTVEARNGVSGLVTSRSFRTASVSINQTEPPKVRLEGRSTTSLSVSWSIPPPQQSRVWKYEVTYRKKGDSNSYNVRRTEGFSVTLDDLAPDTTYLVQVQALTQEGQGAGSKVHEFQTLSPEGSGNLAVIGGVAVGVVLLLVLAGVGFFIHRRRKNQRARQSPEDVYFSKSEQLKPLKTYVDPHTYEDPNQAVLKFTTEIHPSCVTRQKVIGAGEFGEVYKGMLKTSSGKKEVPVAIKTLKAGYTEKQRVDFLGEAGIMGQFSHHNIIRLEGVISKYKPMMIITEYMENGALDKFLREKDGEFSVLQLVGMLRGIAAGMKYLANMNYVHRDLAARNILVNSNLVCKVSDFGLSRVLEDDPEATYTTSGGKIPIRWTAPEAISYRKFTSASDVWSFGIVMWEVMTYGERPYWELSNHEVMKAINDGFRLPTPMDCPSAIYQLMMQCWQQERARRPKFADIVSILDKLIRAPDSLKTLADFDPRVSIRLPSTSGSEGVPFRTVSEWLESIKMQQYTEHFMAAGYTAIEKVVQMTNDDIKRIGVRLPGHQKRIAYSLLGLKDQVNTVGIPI

Consider `CCCC[C@@H]1NC(=O)[C@H](Cc2ccc(O)cc2)NC(=O)[C@@H]2CCCN2C(=O)[C@H](CC(=O)O)NC(=O)[C@H](C)NC(=O)[C@H](Cc2ccccc2)NC(=O)[C@@H]2CSCCC(=O)N3CN(CN(C3)C(=O)CCSC[C@@H](C(=O)N[C@@H](CNC(=O)CCc3cn(CCOCCOCCOCCOCCOCCOCCOCCOCCOCCOCCOCCOCCOCCOCCOCCOCCOCCOCCOCCOCCOCCOCCOCCNC(=O)NCCC(=O)N(C)CC(=O)N(C)CC(=O)N(C)CC(=O)N(C)CC(=O)N(C)CC(=O)N(C)CC(=O)N(C)CC(=O)N(C)CC(=O)N(C)CC(=O)N(C)CC(=O)N[C@@H](C)C(=O)N[C@@H](CCCCNC(=N)N)C(=O)N[C@@H](CC(=O)O)C(=O)N[C@H]4CSCCC(=O)N5CN6CN(C5)C(=O)CCSC[C@H](NC(=O)[C@H](CC(C)C)NC(=O)[C@@H]5CCCN5C(=O)[C@H](CC(N)=O)NC(=O)[C@H](C(C)C)NC(=O)[C@H](CC(C)C)NC(=O)[C@@H]5C[C@@H](O)CN5C4=O)C(=O)N[C@@H](CC(C)C)C(=O)N[C@@H](Cc4c[nH]cn4)C(=O)N4CCC[C@H]4C(=O)N[C@H](CC(=O)O)C(=O)N[C@@H](Cc4c[nH]c5ccccc45)C(=O)N[C@@H](CCCCNC(=N)N)C(=O)N[C@H](C(N)=O)CSCCC6=O)nn3)C(N)=O)NC1=O)C(=O)CCSC[C@H](NC(=O)[C@H](C)NC(C)=O)C(=O)N[C@@H]([C@@H](C)CC)C(=O)N[C@@H](CCC(=O)O)C(=O)N[C@@H](CCC(=O)O)C(=O)NCC(=O)N[C@@H](CCC(N)=O)C(=O)N[C@@H](Cc1ccc(O)cc1)C(=O)N2` [BCY9648], for which, at human EphA2 protein, the affinity, expressed as Kd, was 1.75 nM. The Kd (in general, the constant that tells how readily two partners part at equilibrium) on CD137 [1] is 202 nM. Moreover, at CD137 [2], the EC50 (as a rule, the concentration that produces a half-maximal response) turned out to be 9.3 nM and the “Fold Induction over Background” value came out at 20 fold.

At human EphA2 protein, `CCCC[C@@H]1NC(=O)[C@H](Cc2ccc(O)cc2)NC(=O)[C@@H]2CCCN2C(=O)[C@H](CC(=O)O)NC(=O)[C@H](C)NC(=O)[C@H](Cc2ccccc2)NC(=O)[C@@H]2CSCCC(=O)N3CN(CN(C3)C(=O)CCSC[C@@H](C(=O)N[C@@H](CNC(=O)CCc3cn(CCCNC(=O)CN(C)C(=O)CN(C)C(=O)CN(C)C(=O)CN(C)C(=O)CN(C)C(=O)CCOCCOCCOCCOCCOCCOCCOCCOCCOCCOCCOCCOCCOCCOCCOCCNC(=O)NCCC(=O)N(C)CC(=O)N(C)CC(=O)N(C)CC(=O)N(C)CC(=O)N(C)CC(=O)N(C)CC(=O)N(C)CC(=O)N(C)CC(=O)N(C)CC(=O)N(C)CC(=O)N[C@@H](C)C(=O)N[C@@H](CCCCNC(=N)N)C(=O)N[C@@H](CC(=O)O)C(=O)N[C@H]4CSCCC(=O)N5CN6CN(C5)C(=O)CCSC[C@H](NC(=O)[C@H](CC(C)C)NC(=O)[C@@H]5CCCN5C(=O)[C@H](CC(N)=O)NC(=O)[C@H](C(C)C)NC(=O)[C@H](CC(C)C)NC(=O)[C@@H]5C[C@@H](O)CN5C4=O)C(=O)N[C@@H](CC(C)C)C(=O)N[C@@H](Cc4c[nH]cn4)C(=O)N4CCC[C@H]4C(=O)N[C@H](CC(=O)O)C(=O)N[C@@H](Cc4c[nH]c5ccccc45)C(=O)N[C@@H](CCCCNC(=N)N)C(=O)N[C@H](C(N)=O)CSCCC6=O)nn3)C(N)=O)NC1=O)C(=O)CCSC[C@H](NC(=O)[C@H](C)NC(C)=O)C(=O)N[C@@H]([C@@H](C)CC)C(=O)N[C@@H](CCC(=O)O)C(=O)N[C@@H](CCC(=O)O)C(=O)NCC(=O)N[C@@H](CCC(N)=O)C(=O)N[C@@H](Cc1ccc(O)cc1)C(=O)N2` [BCY9655] had a Kd of 1.33 nM. Further, the Kd at CD137 [1] is 199 nM. At CD137 [2], a half-maximal response (EC50) required 4.1 nM and the “Fold Induction over Background” value amounted to 6 fold.
